Measurements: a melting point compilation (Tetko et al.; mined from patent text by program, amines drawn as free bases though some values may be those of a salt)

Compared with `CCCCC(CC(=O)Nc1cc(C(N)=O)ccc1C(C)(C)C)c1ccc(OCCCS(=O)(=O)CCC)cc1OC` (stereo not given), `CCC1(COCCCCCCOc2ccc(C(=O)O)cc2)COC1` is lower in melting point: 108 to 128 °C for the first, 58.5 °C for the second.

First: CCCCSc1nnc(-c2ccc(N)cc2)s1
Second: CCCCc1ncc(/C=C(\Cc2ccc(N)cc2)C(=O)O)n1Cc1ccccc1Cl
The melting point of the first is lower: 91 °C for the first, 191 to 192 °C for the second.

First: COc1ccc(CCNC(=O)c2nc(N)sc2-c2ccncc2)cc1OC
Second: COc1ccc(CCNC(=O)C=Cc2cccs2)cc1S(=O)(=O)NC(=S)NC(C)C
The melting point of the first is higher: 167 to 168 °C for the first, 96 °C for the second.

Compared with `Clc1ccccc1-c1n[nH]c(SCc2ccccc2)n1`, `CCCCc1ncc(CC(Cc2ccccc2)C(=O)O)n1Cc1ccccc1Cl` (stereo not given) is higher in melting point: 84 to 86 °C for the first, 118 to 120 °C for the second.

Compared with `CCOC(=O)Oc1ccc(C=CC(=O)NC2CCCNC(=O)C2)cc1` (stereo not given), `CC(C(=O)O)c1ccc(C=C2CCCC2=O)cc1` (stereo not given) is lower in melting point: 209 to 210 °C for the first, 106 to 107 °C for the second.

First: C/C=C/c1cc(OC)c2oc(-c3ccc(O)c(OC)c3)c(C)c2c1
Second: CC=CCn1c(C)c(C)c2cnnc(OCc3ccccc3)c21
The melting point of the first is higher: 132 to 133 °C for the first, 81 to 84 °C for the second.

Compared with `CCCCCCCCOc1ccc(-c2ncc(OC(=O)[C@H]3CCCO3)cn2)cc1`, `C=C(C)C(=O)OCCCCCCN(C)c1ccc(C=Cc2ccc([N+](=O)[O-])cc2)cc1` is higher in melting point: 90 °C for the first, 109 to 111 °C for the second.

Compared with `c1ccc(N2CCN(Cc3n[nH]c4ccccc34)CC2)cc1`, `COc1ccccc1C1CSc2ccccc2NC1=O` (stereo not given) is higher in melting point: 196 to 197 °C for the first, 219 °C for the second.

First: CCCn1c(=O)n(-c2ccc3c(c2)OCO3)c2ncccc21
Second: CCCOc1ccc(OC)cc1C1=NC(=O)C2=NC=NC2=N1
The melting point of the first is lower: 112 to 114 °C for the first, 233 to 234 °C for the second.

Compared with `C#Cc1cccc(Nc2ncnc3[nH]cc(-c4ccc(Cl)cc4)c23)c1`, `CCOC(=O)COc1ccc(SCc2cccc3[nH]c(-c4ccc(C(F)(F)F)cc4)cc23)cc1C` is lower in melting point: 225 to 227 °C for the first, 85 to 88 °C for the second.

Compared with `Cc1cccc2c1N(CC(=O)N1CC3CCC(CC3)C1)C(=O)C(NC(=O)Nc1cccc(Cl)c1)N=C2c1ccccc1F` (stereo not given), `CNC(=O)C1CN(CCCC(c2ccc(F)cc2)c2ccc(F)cc2)CCN1CC(=O)Nc1c(C)cc(N)cc1C` (stereo not given) is lower in melting point: over 250 °C for the first, 112 °C for the second.

First: COc1ccccc1NS(=O)(=O)c1cccc([N+](=O)[O-])c1
Second: CC1Cc2cc(S(N)(=O)=O)cc(C(=O)NCC3CCCN3Cc3ccccc3)c2O1 (stereo not given)
The melting point of the first is lower: 130 to 132 °C for the first, 161 to 167 °C for the second.

First: CN(C)C(=O)Nc1scc(C(C)(C)C)c1C#N
Second: Cn1c(=O)c2c(ncn2CCOC(=O)C(C)(C)Oc2ccc(Cl)cc2)n(C)c1=O
The melting point of the first is higher: 140 °C for the first, 131 to 132 °C for the second.

First: CCN(CC)C(=O)c1ccc(I)cc1
Second: O=C(O)c1ccc2cccc(Br)c2c1
The melting point of the first is lower: 68 to 70 °C for the first, 265 to 266 °C for the second.

Compared with `COC(O)c1ccc2c(c1)C(C(Cl)(Cl)Cl)OC(C(Cl)(Cl)Cl)O2` (stereo not given), `CC12CCC3c4ccc(OCc5ccccc5)cc4CCC3C1CCC2O` (stereo not given) is lower in melting point: 123 to 125 °C for the first, 97 to 100 °C for the second.

First: O=C(c1cc(C2CCCCC2)ccn1)N(O)Cc1ccccc1
Second: ONCCc1ccccc1
The melting point of the first is lower: 106 to 110 °C for the first, 118 to 121 °C for the second.

First: Cc1cc(C)cc(S(=O)(=O)n2c(CCCCC(=O)O)cc3nc(Cl)ccc32)c1
Second: CC(Oc1ncn(-c2cc(Cl)cc(Cl)c2)n1)C(=O)O (stereo not given)
The melting point of the first is lower: 160 °C for the first, 230 to 231 °C for the second.

First: Fc1cc(C(F)(F)F)cc(Cl)c1Oc1ccc2cn[nH]c2c1
Second: CC1SC(=O)NN=C1c1ccc2c(c1)C(=Cc1cccs1)C(=O)N2 (stereo not given)
The melting point of the first is lower: 134 to 143 °C for the first, 287 °C for the second.

First: COc1ccc2nc(C)c(S(N)(=O)=O)n2n1
Second: CS(=O)(=O)c1ccc(-c2sc(N3CCCCC3)nc2-c2ccc(F)cc2)cc1
The melting point of the first is higher: 251 °C for the first, 173 to 175 °C for the second.

Compared with `FC(F)Oc1n[nH]cc1-c1ccccc1`, `COC(=O)C1=C(C(=O)OC)c2c([nH]c3ccccc23)CC1` is higher in melting point: 125 °C for the first, 249 °C for the second.
